Holding throughout (format): cell-based
Assay [1] has as its system PCa cells. As to the kind of experiment: Trp-NAD(P)H FRET interaction by FLIM-FRET after doxorubicin treatment. Conditions: as early as 15 mins of treatment, real time, before induction of apoptosis. From the text: Auto-fluorescent biomarker, tryptophan (Trp), has also been linked to cancer investigations. Trp, an essential amino acid, is a precursor of niacin, which in turn is a precursor of NAD (P) H. Increased Trp catabolismand increased indoleamine 2,3-dioxygenase (IDO) activity in the kynurenine pathway are linked to cancer development and progression. Therefore, probing Trp is clinically relevant. In general, Trp fluorescence intensity and lifetime mainly provide information on the protein composition, protein structure of which they are a part of and changes in overall cellular microenvironment. Trp is therefore used as a marker for protein abundance. […] In FLIM-FRET measurements, FRET events are identified if there is reduction in the donor lifetime, because of quenching of its fluorescence in the presence of the acceptor. […] The efficiency of energy transfer or E % is calculated from the following equation E=1-τm/τ0, where τm is the mean lifetime of Trp in cells and τ0=3.1 ns of unquenched Trp lifetime measured from Trp in solution. […]
FLIM instrumentation can include a 3-channel FLIM imaging system of a Zeiss LSM 780 confocal/multiphoton (MP) laser scanning system coupled to the Zeiss inverted epi-fluorescence microscope, which is controlled with the ZEN software (Carl Zeiss, Inc). […]

The test system of assay [2] is PCa cells. As to the kind of experiment: FLIRR (NAD(P)H-a2%/FAD-a1%) by FLIM after doxorubicin treatment. Conditions: as early as 15 mins of treatment, real time, before induction of apoptosis. From the text: The enzyme-bound fractions of NAD (P) H (a2%) and FAD (a1%) and their lifetimes (tm) are used to quantify these metabolic changes, in particular with our novel NAD (P) H-a2%/FAD-a1% FLIM-based redox ratio. The commonly used intensity-based redox ratio [NAD (P) H/FAD], based predominantly on signals driven by mitochondrial OXPHOS is defined as a reduction of this ratio, due to the conversion of fluorescent NAD (P) H to non-fluorescent NAD+ and conversion of non-fluorescent FADH2 to fluorescent FAD. […]
FLIM instrumentation can include a 3-channel FLIM imaging system of a Zeiss LSM 780 confocal/multiphoton (MP) laser scanning system coupled to the Zeiss inverted epi-fluorescence microscope, which is controlled with the ZEN software (Carl Zeiss, Inc). […] The fluorescence decay per pixel was measured using 3-channel SPC-150 TCSPC board (Becker & Hickl, GmbH) where the SPCM software was used to acquire the FLIM data (v. 8.91). […]
The ratio of the bound NAD (P) H to bound FAD, the Fluorescence Lifetime Imaging Redox Ratio (FLIRR), is an optical biomarker to determine a cell's primary metabolic pathway with higher FLIRR values often consistent with a shift towards oxidative phosphorylation and lower values often associated with a shift towards glycolysis.

The subject of assay [3] is AA prostate cancer cells. In words: FLIRR vs intensity-based redox ratio, CoCl2 pretreatment and glucose stimulation.

The structures appear in SMILES notation.

`COc1cccc2c1C(=O)c1c(O)c3c(c(O)c1C2=O)C[C@@](O)(C(=O)CO)C[C@@H]3O[C@H]1C[C@H](N)[C@H](O)[C@H](C)O1` [doxorubicin]: in assay [1], the “Trp-NAD(P)H FRET interactions” value is on record as “increase”. In addition, the “FLIRR of metabolic co-enzymes NAD(P)H & FAD” value in assay [2] was “increase”. As to `[Cl-].[Cl-].[Co+2]` [CoCl2], the NADH-a2%/FAD-a1% ratio result in assay [3] is recorded as “decrease”.
